Data from patent US10618885B2, “Compounds that activate autophagy” (Macau University of Science and Technology, priority 2018, dated 2020).
Read-outs that look alike come from different tables or passages of the source.

Experiments:
Format in all cases: cell-based
HeLa cells = assay: Annexin V cell death analysis by flow cytometry, with or without wortmannin; details: 24 hours; for compound-mediated cell death on blocking of autophagy by wortmannin: 5 μM compound plus 1 μM wortmannin; for percentage of cell death: 5 μM compound, annexin V staining, without wortmannin
Method: Apoptosis was detected by Annexin V staining kit (BD Biosciences, San Jose, Calif., USA). In brief, cells were exposed to the indicated concentrations of […] for 24 hours. Cells were then harvested and analyzed by flow cytometry using FITC-Annexin V and Propidium Iodide staining according to the manufacturer's instructions. Apoptotic cells were quantitatively counted by a flow cytometer (BD FACSAria III, San Jose, Calif., USA). Data acquisition and analysis were performed with CellQuest (BD Biosciences, San Jose, Calif., USA) from triple independent experiments.
To investigate whether the autophagy induced by compounds 2a, 2b, 3a, and 4a contributes to cell death, Annexin V cell death analysis was conducted. HeLa cells treated with these compounds (5 μM) in the presence or absence of 1 μM of wortmannin for 24 hours were assayed by flow cytometry after annexin V staining. Bar charts of FIGS. 5C and 5E represent the quantitation of cell death (%).

[1] = test system: GFP-LC3 stable HeLa cells; assay: Autophagy LC3 puncta detection in GFP-LC3 stable HeLa cells; details: 24 hours; for formation of GFP-LC3 puncta (fluorescence images): compared with untreated cells; for percentage of cells with GFP-LC3 puncta (dose dependence): three concentrations
Method: The detection of LC3 autophagic puncta was conducted using GFP-LC3 stable HeLa cancer cells as described below. In brief, compounds-treated GFP-LC3-HeLa cells on cover slips were fixed with 4% paraformaldehyde (Sigma) for 20 min at room temperature and then rinsed with PBS (phosphate-buffered saline). The coverslips were then mounted with FLUORSAVE™ mounting media (Calbiochem, San Diego, Calif., USA) for fluorescence imaging and the localization of LC3 autophagosomes were captured under the API Delta Vision Live-cell Imaging System (Applied Precision Inc., GE Healthcare Company, Washington, USA). To quantify autophagy, guidelines were followed to monitor autophagy, the percentage of cells with punctuate LC3 immunofluorescence staining was calculated by counting the number of the cells showing the increased punctuate pattern of LC3 fluorescence (≥10 dots/cell) in immunofluorescence-positive cells over the total number of cells in the same field. A minimum of 1000 cells from randomly selected fields were scored.
FIG. 2A-3H show identification of compounds 2a-4b with autophagic activities. GFP-LC3 puncta in compound-treated GFP-LC3-HeLa cells were detected. GFP-LC3 stable HeLa cells were treated with DMSO (−ve Ctrl) or the indicated concentrations of dauricine (Dau), N-desmethyldauricine (NDau) and dauricine derivatives (2a-4b) for 24 hours. Representative fluorescence images from the highest tested concentration of compound captured at 60× magnification were shown; scale bar, 15 μm. Bar charts represent the quantitation of autophagic cells. The percentages of autophagic cells were calculated as the number of cells with GFP-LC3 puncta (≥10 puncta/cell) divided by the total number of GFP-positive cells in the same field.

[2] = test system: LC3 conversion (LC3-I to LC3-II) in HeLa cells; assay: Western blot for autophagic marker LC3 conversion in HeLa cells; details: 24 hours, three concentrations, normalised to β-actin
Method: After drug treatment, adherent and floating cells were lysed with RIPA lysis buffer. Protein concentrations were determined using the Bio-Rad protein assay (Bio-Rad Laboratories, Inc., Hercules, Calif., USA). The cell lysates of samples were subjected to electrophoresis on SDS polyacrylamide gels and transferred to Hybond enhanced chemiluminescence nitrocellulose membranes (Amersham Biosciences, Piscataway, N.J.), which were then blocked with 5% non-fat dry milk protein for 1 hour. Membranes were then incubated with the indicated primary antibodies overnight at 4° C. The binding of the antibody was visualized by peroxidase-coupled secondary antibody using the ECL (enhanced chemiluminescence) Western Blotting Detection Reagents (Invitrogen, Paisley, Scotland, UK). Band intensities were quantified by using the software ImageJ (NIH, Bethesda, Md., USA).
The presence of the autophagy marker protein, LC3-II was determined in HeLa cells by western blot analysis. HeLa cancer cells were treated with dauricine (Dau) or compounds 2a-4b with three indicated concentrations for 24 hours. Cell lysates were analyzed by Western blot for LC3 conversion ([…]) and β-actin. The western blot was shown in FIGS. 4A, 4C, 4E, 4G, 4I, 4K, and 4M. LC3-II band intensities were quantified using densitometric analysis and normalised to β-actin. The results were shown in FIGS. 4B, 4D, 4F, 4H, 4J, 4L and 4N. Data are expressed as a fold change relative to the DMSO-treated negative control. Bars are representatives of three independent experiments. Error bars, SEM. *, P<0.05; **, P<0.01; ***, P<0.001.

HeLa cancer cells = assay: MTT cytotoxicity assay in HeLa cancer cells
Method: All test compounds were dissolved in DMSO (Dimethyl sulfoxide) at final concentrations of 50 mmol/L and stored at −20° C. before use. Cytotoxicity was assessed using the 3-(4, 5-dimethylthiazol-2-yl)-2, 5-diphenyltetrazolium bromide (MTT) (5.0 mg/ml) assay. Briefly, 4×10^3 cells were seeded per well in 96-well plates before drug treatment. After overnight culture, the cells were then exposed to different concentrations of test compounds (0.039-100 μmol/L) for 72 hours. Cells without drug treatment were used as control. Subsequently, MTT (10 μL) was added to each well and incubated at 37° C. for 4 hours followed by the addition of 100 μL solubilization buffer (10% SDS (Sodium dodecyl sulfate) in 0.01 mol/L HCl) and overnight incubation. A570 nm was determined from each well on the next day. The percentage of cell viability was calculated using the following formula: Cell viability (%)=Atreated/Acontrol×100. Data were obtained from triplication independent experiments.
FIG. 1 is a graph 100 showing cell viability of HeLa cells treated with dauricine, N-desmethyldauricine, and compounds 2a-4b. HeLa cancer cells in 96 well-plates were treated with 0 to 20 μM of dauricine (Dau), N-desmethyldauricine (NDau) and dauricine derivatives (2a-4b) for 72 hours. Cell cytotoxicity was then assessed using the 3-(4, 5-dimethylthiazol-2-yl)-2, 5-diphenyltetrazolium bromide (MTT) (5.0 mg/ml) assay. The IC50 values shown in FIG. 1 are mean values of three independent experiments.

[3] = HeLa cancer cells, 72 hours, MTT, mean of three independent experiments, read-out: IC50 (cytotoxicity)

How did the “cytotoxic effect of wortmannin alone” value (HeLa cells; wortmannin alone (1 μM)) turn out when `COC[C@H]1OC(=O)c2coc3c2[C@@]1(C)C1=C(C3=O)[C@@H]2CCC(=O)[C@@]2(C)C[C@H]1OC(C)=O` [wortmannin, reference compound] was run?
The value was “no cytotoxic effect”.

For `COc1cc2c(cc1OC)[C@@H](Cc1ccc(Oc3cc(C[C@@H]4c5cc(OC)c(OC)cc5CCN4C)ccc3O)cc1)N(C)CC2` [dauricine, reference compound], which “formation of GFP-LC3 puncta (fluorescence images)” value [1] is on record?
The value was “increased formation of GFP-LC3 puncta”.

And the “percentage of cells with GFP-LC3 puncta (dose dependence)” value [1]?
The value was “induced autophagic puncta in HeLa cells in a dose-dependent manner”.

What about the “conversion of LC3-I to LC3-II (fold change relative to DMSO control)” value [2] of the same molecule?
Its value is “increased the conversion of LC3-I to LC3-II in a dose-dependent manner”.

And the IC50 (HeLa cancer cells; Homo sapiens, HeLa, 72 h, read-out: IC50 (cytotoxicity))?
Its IC50 is 15.5 µM.

`COc1cc2c(cc1OC)C(Cc1ccc(Oc3cc(CC4c5cc(OC)c(OC)cc5CCN4C)ccc3OC(=O)N3CCOCC3)cc1)N(C)CC2` (centres unmarked) [Compound 2g] was tested. Which “conversion of LC3-I to LC3-II (fold change relative to DMSO control)” value [2] did it give?
The value was “increased the conversion of LC3-I to LC3-II in a dose dependent manner”.

For `COc1cc2c(cc1OC)C(Cc1ccc(Oc3cc(CC4c5cc(OC)c(OC)cc5CCN4C)ccc3OS(=O)(=O)c3ccc(C)cc3)cc1)N(C)CC2` (centres unmarked) [Compound 4a], which “compound-mediated cell death on blocking of autophagy by wortmannin” value (shortened to “compound-mediated cell death on blocking”) (HeLa cells) is on record?
The value was “significantly inhibited”.

What about the “percentage of cell death” value (HeLa cells) of the same molecule?
The value was “markedly increased the percentage of cell death”.

And the “conversion of LC3-I to LC3-II (fold change relative to DMSO control)” value [2]?
The value was “increased the conversion of LC3-I to LC3-II in a dose dependent manner”.

What about the IC50 (HeLa cancer cells; [3]) of the same molecule?
The IC50 was 6.1 µM.

With `COc1cc2c(cc1OC)C(Cc1ccc(Oc3cc(CC4c5cc(OC)c(OC)cc5CCN4C)ccc3OC(=O)N(C)C)cc1)N(C)CC2` (centres unmarked) [Compound 2c] as the molecule, how does the “conversion of LC3-I to LC3-II (fold change relative to DMSO control)” value [2] read?
The value was “increased the conversion of LC3-I to LC3-II in a dose dependent manner”.

With `COc1cc2c(cc1OC)C(Cc1ccc(Oc3cc(CC4c5cc(OC)c(OC)cc5CCN4C)ccc3OC(=O)N(C)OC)cc1)N(C)CC2` (centres unmarked) [Compound 2f] as the molecule, how does the “conversion of LC3-I to LC3-II (fold change relative to DMSO control)” value [2] read?
Its value is “increased the conversion of LC3-I to LC3-II in a dose dependent manner”.

Which results are given for `COc1cc2c(cc1OC)C(Cc1ccc(Oc3cc(CC4c5cc(OC)c(OC)cc5CCN4C)ccc3OC(=O)N(C)c3ccccc3)cc1)N(C)CC2` (centres unmarked) [Compound 2b]?
compound-mediated cell death on blocking of autophagy by wortmannin (HeLa cells): significantly inhibited; percentage of cell death (HeLa cells): markedly increased the percentage of cell death; conversion of LC3-I to LC3-II (fold change relative to DMSO control) [2]: increased the conversion of LC3-I to LC3-II in a dose dependent manner; IC50 (HeLa cancer cells; [3]): 6.72 µM

With `CCN(C)C(=O)Oc1ccc(CC2c3cc(OC)c(OC)cc3CCN2C)cc1Oc1ccc(CC2c3cc(OC)c(OC)cc3CCN2C)cc1` (centres unmarked) [Compound 2d] as the molecule, how does the “conversion of LC3-I to LC3-II (fold change relative to DMSO control)” value [2] read?
The value was “increased the conversion of LC3-I to LC3-II in a dose dependent manner”.

Which “compound-mediated cell death on blocking” value (HeLa cells) does the source give for `COc1cc2c(cc1OC)C(Cc1ccc(Oc3cc(CC4c5cc(OC)c(OC)cc5CCN4C)ccc3OC(=O)c3ccccc3)cc1)N(C)CC2` (centres unmarked) [Compound 3a] here?
The value was “significantly inhibited”.

And the “percentage of cell death” value (HeLa cells)?
The value was “markedly increased the percentage of cell death”.

What about the “conversion of LC3-I to LC3-II (fold change relative to DMSO control)” value [2] of the same molecule?
Its value is “increased the conversion of LC3-I to LC3-II in a dose dependent manner”.

What about the IC50 (HeLa cancer cells; [3]) of the same molecule?
The IC50 was 6.44 µM.

How did the “conversion of LC3-I to LC3-II (fold change relative to DMSO control)” value [2] turn out when `COc1cc2c(cc1OC)C(Cc1ccc(Oc3cc(CC4c5cc(OC)c(OC)cc5CCN4C)ccc3OS(C)(=O)=O)cc1)N(C)CC2` (centres unmarked) [Compound 4b] was run?
Its value is “increased the conversion of LC3-I to LC3-II in a dose dependent manner”.

`CCN(CC)C(=O)Oc1ccc(CC2c3cc(OC)c(OC)cc3CCN2C)cc1Oc1ccc(CC2c3cc(OC)c(OC)cc3CCN2C)cc1` (centres unmarked) [Compound 2e] was tested. Which “conversion of LC3-I to LC3-II (fold change relative to DMSO control)” value [2] did it give?
Its value is “increased the conversion of LC3-I to LC3-II in a dose dependent manner”.

How did the “conversion of LC3-I to LC3-II (fold change relative to DMSO control)” value [2] turn out when `COc1cc2c(cc1OC)C(Cc1ccc(Oc3cc(CC4c5cc(OC)c(OC)cc5CCN4C)ccc3OC(=O)c3ccco3)cc1)N(C)CC2` (centres unmarked) [Compound 3b] was run?
Its value is “increased the conversion of LC3-I to LC3-II in a dose dependent manner”.

How did the “compound-mediated cell death on blocking” value (HeLa cells) turn out when `COc1cc2c(cc1OC)C(Cc1ccc(Oc3cc(CC4c5cc(OC)c(OC)cc5CCN4C)ccc3OC(=O)N(c3ccccc3)c3ccccc3)cc1)N(C)CC2` (centres unmarked) [Compound 2a] was run?
The value was “significantly inhibited”.

What about the “percentage of cell death” value (HeLa cells) of the same molecule?
Its value is “markedly increased the percentage of cell death”.

And the “conversion of LC3-I to LC3-II (fold change relative to DMSO control)” value [2]?
The value was “increased the conversion of LC3-I to LC3-II in a dose dependent manner”.

And the IC50 (HeLa cancer cells; [3])?
The IC50 was 5.44 µM.

How did the “formation of GFP-LC3 puncta (fluorescence images)” value [1] turn out when `COc1cc2c(cc1OC)[C@@H](Cc1ccc(Oc3cc(C[C@H]4NCCc5cc(OC)c(OC)cc54)ccc3O)cc1)N(C)CC2` [N-desmethyldauricine, reference compound] was run?
Its value is “increased formation of GFP-LC3 puncta”.

And the “percentage of cells with GFP-LC3 puncta (dose dependence)” value [1]?
The value was “induced autophagic puncta in HeLa cells in a dose-dependent manner”.

And the “conversion of LC3-I to LC3-II (fold change relative to DMSO control)” value [2]?
The value was “increased the conversion of LC3-I to LC3-II in a dose-dependent manner”.

And the IC50 (HeLa cancer cells)?
Its IC50 is 15.8 µM.
